Assay results taken from ChEMBL document CHEMBL4808238, “Small Molecule Inhibitors of KRAS Mutant as a Therapeutic Strategy for the Treatment of Cancer” (ACS Med Chem Lett, 2021).

These compounds were tested against GTPase KRas (Homo sapiens, UniProt P01116, G12C) (assay: Inhibition of biotinylated KRAS G12C mutant (unknown origin) assessed as inhibition of SOS-catalyzed nucleotide exchange preincubated for 60 mins followed by addition of human recombinant SOS protein and unlabeled GTP and measured after 60 mins by TR-FRET analysis).
GTPase KRas, sequence (P01116 whole entry G12C): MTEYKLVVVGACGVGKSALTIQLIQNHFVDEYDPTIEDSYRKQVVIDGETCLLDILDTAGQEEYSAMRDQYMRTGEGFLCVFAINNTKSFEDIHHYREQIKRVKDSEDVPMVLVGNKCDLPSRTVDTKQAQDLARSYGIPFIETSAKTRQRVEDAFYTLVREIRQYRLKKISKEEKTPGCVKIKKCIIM

**Q.** Which IC50 does the source give for `C=CC(=O)N1CCN(c2cc(C(=O)NC3(CC)CCNC3)nc3c2CCN(c2cccc4cccc(C)c24)C3)C[C@@H]1CC#N` (stereo partly specified) here?
**A.** 4.5 nM

**Q.** For `C=CC(=O)N1CCN(c2cc(C(=O)NC(C)CN3CCC(C)(O)C3)nc3c2CCN(c2cccc4cccc(C)c24)C3)C[C@@H]1CC#N` (stereo in doubt; 76), which IC50 is on record?
**A.** 6.2 nM

**Q.** How did the IC50 turn out when `C=CC(=O)N1CCN(c2cc(C(=O)NC(C)CN3CCC(C)(O)C3)nc3c2CCN(c2cccc4cccc(C)c24)C3)C[C@@H]1CC#N` (stereo in doubt; 75) was run?
**A.** 7.2 nM

**Q.** For `C=C(F)C(=O)N1CCN(c2cc(C(=O)N[C@H](C)CN(C)C)nc3c2CCN(c2cccc4cccc(C)c24)C3)C[C@@H]1CC#N`, which IC50 is on record?
**A.** 8.3 nM

**Q.** How did the IC50 turn out when `C=CC(=O)N1CCN(c2cc(C(=O)NCC3CCCCN3)nc3c2CCN(c2cccc4cccc(C)c24)C3)C[C@@H]1CC#N` (stereo partly specified) was run?
**A.** 8.3 nM

**Q.** How did the IC50 turn out when `C=CC(=O)N1CCN(c2cc(C(=O)N[C@H](C)CN3CC(C)(O)C3)nc3c2CCN(c2cccc4cccc(C)c24)C3)C[C@@H]1CC#N` was run?
**A.** 2.2 nM

**Q.** `C=CC(=O)N1CCN(c2cc(C(=O)N[C@H](C)CN(C)C)nc3c2CCN(c2c(Cl)c(C)cc4[nH]ncc24)C3)C[C@@H]1CC#N` was tested. Which IC50 did it give?
**A.** 0.9 nM

**Q.** Which IC50 does the source give for `C=CC(=O)N1CCN(c2cc(C(=O)NC3(C)CCCNC3)nc3c2CCN(c2cccc4cccc(C)c24)C3)C[C@@H]1CC#N` (stereo partly specified) here?
**A.** 5.4 nM

**Q.** For `C=CC(=O)N1CCN(c2cc(C(=O)N[C@@H]3CCC[C@H]3N(C)C)nc3c2CCN(c2cccc4cccc(C)c24)C3)C[C@@H]1CC#N`, which IC50 is on record?
**A.** 1 nM

**Q.** For `C=CC(=O)N1CCN(c2cc(C(=O)NC[C@H]3CCCN3)nc3c2CCN(c2cccc4cccc(C)c24)C3)C[C@@H]1CC#N`, which IC50 is on record?
**A.** 6.2 nM

**Q.** For `C=C(F)C(=O)N1CCN(c2cc(C(=O)NC(C)CN3CCC(C)(O)C3)nc3c2CCN(c2cccc4cccc(C)c24)C3)C[C@@H]1CC#N` (stereo partly specified), which IC50 is on record?
**A.** 5 nM
